Laboratory results from patent US11440923B2, “Substituted macrocyclic indole derivatives” (Bayer Aktiengesellschaft, priority 2017, dated 2022).
pEC50, pIC50: −log10 of the molar value. Counter-ions that a name gives are not always drawn. Like-named read-outs stand apart in the source and are kept apart here.

Columns and labels:
SUDHL10 cells [1] = assay: Induction of cytotoxicity in SUDHL10 cells (Assay 6); type: cell-based; conditions: 5 h, CellTiter-Glo, read-out: Cytotox SUDHL10 IC50 (median)
Outline: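 Overnight seeding, 37 °C; 5 h compound exposure; CellTiter-Glo, 15 min RT shake; luminescence read. No-cell medium control.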

BCL-XL = BCL-XL (Homo sapiens (Human), UniProt Q07817); assay: Protein-protein interaction assay BCL-XL/Bad BH3 peptide (BCL-XL assay, TR-FRET); type: binding; conditions: read-out: BCL-XL Assay IC50 (median)
BCL-XL, sequence (Q07817 1-212): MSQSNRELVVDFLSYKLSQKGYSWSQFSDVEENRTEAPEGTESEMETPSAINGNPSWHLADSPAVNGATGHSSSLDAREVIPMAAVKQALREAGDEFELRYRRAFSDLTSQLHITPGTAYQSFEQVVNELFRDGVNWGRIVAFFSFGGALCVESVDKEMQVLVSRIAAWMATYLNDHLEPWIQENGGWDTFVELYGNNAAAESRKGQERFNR
Outline: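 TR-FRET competition: 1 nM His-tagged human BCL-XL (1-212) versus 1 nM biotin-PEG Bad BH3 peptide tracer, buffer 50 mM Tris pH 7, NaCl, KF, DTT. Compound preincubated with protein 10 min at 22 °C; read after 1 h at 22 °C plus overnight at 4 °C. IC50 by 4-parameter regression of normalized ratios.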

SUDHL10 cells [2] = assay: Induction of caspase-3/7 activity in SUDHL10 cells (Assay 4); type: cell-based
Outline: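 Read-out: Caspase-Glo 3/7 luminescence (1 h, 37 °C) after cells, plated overnight, were treated with compounds for 3 h at 37 °C. Signal corrected for cell-free medium background and expressed relative to DMSO control mean.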

HMC-1-8 cells = assay: Antiproliferation assay HMC-1-8 (Assay 7); type: cell-based
Outline: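 Using a parallel time-zero plate as baseline, the anti-proliferative effect was assessed by CellTiter-Glo after 72 h compound incubation at 37 °C. IC50 was computed from day 0 and DMSO control values.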

[3] = Homo sapiens, SU-DHL10, 3 h, caspase-3/7 induction, 3 h, read-out: Caspase SUDHL10 EC50 (median)
[4] = 72 h, CellTiter-Glo, read-out: Antiproli HMC-1-8 IC50 median
[5] = caspase-3/7 induction, 3 h, read-out: Caspase SUDHL10 EC50 (median)
[6] = 72 h, CellTiter-Glo; read-out: Antiproli HMC-1-8 IC50 median
[7] = read-out: Caspase SUDHL10 EC50 (median), caspase-3/7 induction, 3 h
[8] = read-out: Antiproli HMC-1-8 IC50 median; 72 h, CellTiter-Glo

Row | SMILES | pIC50 (SUDHL10 cells [1]; Homo sapiens, SU-DHL10, 5 h) | pIC50 (BCL-XL) | pEC50 (SUDHL10 cells [2]; [3]) | pIC50 (HMC-1-8 cells; [4]) | pIC50 (SUDHL10 cells [1]) | pEC50 (SUDHL10 cells [2]; [5]) | pIC50 (HMC-1-8 cells; [6]) | pEC50 (SUDHL10 cells [2]; [7]) | pIC50 (HMC-1-8 cells; [8]) | pEC50 (SUDHL10 cells [2]; Homo sapiens, SU-DHL10, 3 h, read-out: Caspase SUDHL10 EC50 (median), caspase-3/7 induction, 3 h) | pIC50 (HMC-1-8 cells; 72 h, read-out: Antiproli HMC-1-8 IC50 median, 72 h, CellTiter-Glo)
1 | CCc1c2c(nn1C)C(CCN1CCOCC1)OCCCCn1c(C(=O)O)c(CCCOc3cccc4ccccc34)c3ccc(F)c-2c31 (racemic) [Example 10, (rac)-3-ethyl-4-fluoro-2-methyl-15-[2-(morpholin-4-yl)ethyl]-7-[3-(naphthalen-1-yloxy)propyl]-2,10,11,12,13,15-hexahydropyrazolo[4′,3′:9,10][1,6]oxazacycloundecino[8,7,6-hi]indole-8-carboxylic Acid] | 6.52 | < 4.70 | 6.66 | 5.83 |  |  |  |  |  |  | 
2 | CCc1c2c(nn1C)C(CCN1CCOCC1)OCCCCn1c(C(=O)O)c(CCCOc3cccc4cc(F)ccc34)c3ccc(F)c-2c31 (racemic) [Example 49, (rac)-3-Ethyl-4-fluoro-7-{3-[(6-fluoronaphthalen-1-yl)oxy]propyl}-2-methyl-(15-rac)-[2-(morpholin-4-yl)ethyl]-2,10,11,12,13,15-hexahydropyrazolo[4′,3′:9,10][1,6]oxazacycloundecino[8,7,6-hi]indole-8-carboxylic Acid] | 7.48 | < 4.70 | 7.68 | 5.97 |  |  |  |  |  |  | 
3 | CCc1c2c(nn1C)C(CCO)OCCCCn1c(C(=O)O)c(CCCOc3cccc4cc(F)ccc34)c3ccc(Cl)c-2c31 (single isomer, unassigned; enantiomer 2) [Example 46, (−)-4-chloro-3-ethyl-7-{3-[(6-fluoronaphthalen-1-yl)oxy]propyl}-15-(2-hydroxyethyl)-2-methyl-2,10,11,12,13,15-hexahydropyrazolo[4′,3′:9,10][1,6]oxazacycloundecino[8,7,6-hi]indole-8-carboxylic Acid (Enantiomer 2)] |  | < 4.70 |  |  | 5.26 | 5.40 | < 4.48 |  |  |  | 
4 | CCc1c2c(nn1C)C(CCC1CCOCC1)OCCCCn1c(C(=O)O)c(CCCOc3cccc4cc(F)ccc34)c3ccc(Cl)c-2c31 (single isomer, unassigned; enantiomer 2) [Example 62, (−)-4-chloro-3-ethyl-7-{3-[(6-fluoronaphthalen-1-yl)oxy]propyl}-2-methyl-15-[2-(oxan-4-yl)ethyl]-2,10,11,12,13,15-hexahydropyrazolo[4′,3′:9,10][1,6]oxazacycloundecino[8,7,6-hi]indole-8-carboxylic Acid (Enantiomer 2)] |  | < 4.70 |  |  | 5.11 | 5.16 | 4.66 |  |  |  | 
5 | CCc1c2c(nn1C)C(CCOC)OCCCCn1c(C(=O)O)c(CCCOc3cccc4cc(F)ccc34)c3ccc(Cl)c-2c31 (racemic) [Example 41, (rac)-4-chloro-3-ethyl-7-{3-[(6-fluoronaphthalen-1-yl)oxy]propyl}-(15-rac)-(2-methoxyethyl)-2-methyl-2,10,11,12,13,15-hexahydropyrazolo[4′,3′:9,10][1,6]oxazacycloundecino[8,7,6-hi]indole-8-carboxylic Acid] | 6.80 | 4.82 | 6.89 | 5.88 |  |  |  |  |  |  | 
6 | CCc1c2c(nn1C)C(CCN1CCOCC1)OCCCCn1c(C(=O)O)c(CCCOc3cccc4cc(F)ccc34)c3ccc(F)c-2c31 (single isomer, unassigned; enantiomer 2) [Example 51, (−)-3-ethyl-4-fluoro-7-{3-[(6-fluoronaphthalen-1-yl)oxy]propyl}-2-methyl-15-[2-(morpholin-4-yl)ethyl]-2,10,11,12,13,15-hexahydropyrazolo[4′,3′:9,10][1,6]oxazacycloundecino[8,7,6-hi]indole-8-carboxylic Acid (Enantiomer 2)] |  | < 4.70 |  |  | 5.43 | 5.01 | 4.66 |  |  |  | 
7 | CCc1c2c(nn1C)C(CC(C)(C)O)OCCCCn1c(C(=O)O)c(CCCOc3cccc4cc(F)ccc34)c3ccc(Cl)c-2c31 (single isomer, unassigned; enantiomer 1) [Example 53, (+)-4-chloro-3-ethyl-7-{3-[(6-fluoronaphthalen-1-yl)oxy]propyl}-15-(2-hydroxy-2-methylpropyl)-2-methyl-2,10,11,12,13,15-hexahydropyrazolo[4′,3′:9,10][1,6]oxazacycloundecino[8,7,6-hi]indole-8-carboxylic Acid—N-ethylethanamine Salt (Enantiomer 1)] |  | 4.96 |  |  | 6.72 |  |  | 6.80 | 6.01 |  | 
8 | CCc1c2c(nn1C)C(CCN1CCOCC1)OCCCCn1c(C(=O)O)c(CCCOc3cccc4cc(F)ccc34)c3ccc(F)c-2c31 (single isomer, unassigned; enantiomer 1) [Example 50, (+)-3-ethyl-4-fluoro-7-{3-[(6-fluoronaphthalen-1-yl)oxy]propyl}-2-methyl-15-[2-(morpholin-4-yl)ethyl]-2,10,11,12,13,15-hexahydropyrazolo[4′,3′:9,10][1,6]oxazacycloundecino[8,7,6-hi]indole-8-carboxylic Acid (Enantiomer 1)] |  | < 4.70 |  |  | 7.57 | 7.59 | 6.41 |  |  |  | 
9 | CCc1c2c(nn1C)C(CCN1CCC(F)(F)C1)OCCCCn1c(C(=O)O)c(CCCOc3cccc4cc(F)ccc34)c3ccc(Cl)c-2c31 (racemic) [Example 55, (rac)-4-chloro-(15-rac)-[2-(3,3-difluoropyrrolidin-1-yl)ethyl]-3-ethyl-7-{3-[(6-fluoronaphthalen-1-yl)oxy]propyl}-2-methyl-2,10,11,12,13,15-hexahydropyrazolo[4′,3′:9,10][1,6]oxazacycloundecino[8,7,6-hi]indole-8-carboxylic acid—2-hydroxypropane-1,2,3-tricarboxylic Acid Salt] | 7.17 | < 4.70 | 7.33 | 6.76 |  |  |  |  |  |  | 
10 | CCc1c2c(nn1C)C(CCN1CCN(C)CC1)OCCCCn1c(C(=O)O)c(CCCOc3cccc4cc(F)ccc34)c3ccc(Cl)c-2c31 (racemic) [Example 68, 4-chloro-3-ethyl-7-{3-[(6-fluoronaphthalen-1-yl)oxy]propyl}-2-methyl-(15-rac)-[2-(4-methylpiperazin-1-yl)ethyl]-2,10,11,12,13,15-hexahydropyrazolo[4′,3′:9,10][1,6]oxazacycloundecino[8,7,6-hi]indole-8-carboxylic Acid—N-ethylethanamine Salt (Mixture 1 of Stereoisomers)] |  | < 4.70 |  |  | 6.82 |  |  | 7.09 | 5.58 |  | 
11 | CCc1c2c(nn1C)C(C1CC1)OCCCCn1c(C(=O)O)c(CCCOc3cccc4cc(F)ccc34)c3ccc(Cl)c-2c31 (racemic) [Example 38, (rac)-4-chloro-(15-rac)-cyclopropyl-3-ethyl-7-{3-[(6-fluoronaphthalen-1-yl)oxy]propyl}-2-methyl-2,10,11,12,13,15-hexahydropyrazolo[4′,3′:9,10][1,6]oxazacycloundecino[8,7,6-hi]indole-8-carboxylic Acid] | 5.20 | < 4.70 | 5.28 | 4.69 |  |  |  |  |  |  | 
12 | CCc1c2c(nn1C)C(C(F)(F)F)OCCCCn1c(C(=O)O)c(CCCOc3cccc4ccccc34)c3ccc(Cl)c-2c31 (racemic) [Example 27, (rac)-4-Chloro-3-ethyl-2-methyl-7-{3-[(naphthalen-1-yl)oxy]propyl}-15-(trifluoromethyl)-2,10,11,12,13,15-hexahydropyrazolo[4′,3′:9,10][1,6]oxazacycloundecino[8,7,6-hi]indole-8-carboxylic Acid] | 5.02 | < 4.70 | 5.18 | 4.68 |  |  |  |  |  |  | 
13 | Cc1c2c(nn1C)C(CCN1CCOCC1)OCCCCn1c(C(=O)O)c(CCCOc3cccc4cc(F)ccc34)c3ccc(F)c-2c31 (single isomer, unassigned; enantiomer 1) [Example 20, 4-fluoro-7-{3-[(6-fluoronaphthalen-1-yl)oxy]propyl}-2,3-dimethyl-15-[2-(morpholin-4-yl)ethyl]-2,10,11,12,13,15-hexahydropyrazolo[4′,3′:9,10][1,6]oxazacycloundecino[8,7,6-hi]indole-8-carboxylic Acid—N-ethylethanamine (Enantiomer 1)] | 7.39 | < 4.70 |  |  |  |  |  |  |  | 7.49 | 6.34
14 | CCC1OCCCCn2c(C(=O)O)c(CCCOc3cccc4ccccc34)c3ccc(Cl)c(c32)-c2c1nn(C)c2C (racemic) [Example 25, (rac)-4-chloro-15-ethyl-2,3-dimethyl-7-{3-[(naphthalen-1-yl)oxy]propyl}-2,10,11,12,13,15-hexahydropyrazolo[4′,3′:9,10][1,6]oxazacycloundecino[8,7,6-hi]indole-8-carboxylic Acid] | 5.06 | < 4.70 | 5.00 | 4.89 |  |  |  |  |  |  | 
